Values after ≈ are worked out from the molar mass of the structure shown.
Key:
[1] = system: Human immunodeficiency virus 1; experiment: Antiviral activity against HIV1 harboring reverse transcriptase Y181C mutant infected in primary MT4 cells assessed as inhibition of virus-induced cytopathogenicity after 4 days by MTS assay; type: functional, organism-based; conditions: Human immunodeficiency virus 1, MT4, 96 h
[2] = system: Human immunodeficiency virus 1; experiment: Antiviral activity against HIV1 harboring reverse transcriptase K103N mutant infected in primary MT4 cells assessed as inhibition of virus-induced cytopathogenicity after 4 days by MTS assay; type: functional, organism-based; conditions: Human immunodeficiency virus 1, MT4, 96 h
[3] = Antiviral activity against HIV1 BH10 harboring wild type reverse transcriptase infected in primary MT4 cells assessed as inhibition of virus-induced cytopathogenicity after 4 days by MTS assay; type: functional, cell-based, Human immunodeficiency virus type 1 BH10; conditions: Human immunodeficiency virus 1, MT4, 96 h
[4] = system: Human immunodeficiency virus 1; experiment: Antiviral activity against HIV1 harboring reverse transcriptase Y181C/K103N double mutant infected in primary MT4 cells assessed as inhibition of virus-induced cytopathogenicity after 4 days by MTS assay; type: functional, organism-based; conditions: Human immunodeficiency virus 1, MT4, 96 h
[5] = Aqueous solubility of the compound at pH 7; type: physicochemical; conditions: aqueous medium
[6] = system: Human immunodeficiency virus 1; experiment: Antiviral activity against HIV1 harboring reverse transcriptase K103N mutant infected in secondary MT4 cells assessed as inhibition of virus-induced cytopathogenicity after 4 days by MTS assay; type: functional, organism-based; conditions: Human immunodeficiency virus 1, MT4, 96 h
[7] = system: Human immunodeficiency virus 1; experiment: Antiviral activity against HIV1 harboring reverse transcriptase Y181C/K103N double mutant infected in secondary MT4 cells assessed as inhibition of virus-induced cytopathogenicity after 4 days by MTS assay; type: functional, organism-based; conditions: Human immunodeficiency virus 1, MT4, 96 h
[8] = Antiviral activity against HIV1 BH10 harboring wild type reverse transcriptase infected in secondary MT4 cells assessed as inhibition of virus-induced cytopathogenicity after 4 days by MTS assay; type: functional, cell-based, Human immunodeficiency virus type 1 BH10; conditions: Human immunodeficiency virus 1, MT4, 96 h
[9] = system: Human immunodeficiency virus 1; experiment: Antiviral activity against HIV1 harboring reverse transcriptase Y181C mutant infected in secondary MT4 cells assessed as inhibition of virus-induced cytopathogenicity after 4 days by MTS assay; type: functional, organism-based; conditions: Human immunodeficiency virus 1, MT4, 96 h

Structure (SMILES)	EC50 [1] [nM]	EC50 [2] [nM]	EC50 [3] [nM]	EC50 [4] [nM]	solubility [5] [µM]	EC50 [6] [nM]	EC50 [7] [nM]	EC50 [8] [nM]	EC50 [9] [nM]
COP(=O)(c1cc(C)cc(/C=C/C#N)c1)c1c(C(N)=O)[nH]c2ccc(Cl)cc12 (racemic)	3	3	2.9	16.6	–	–	–	–	–
COP(=O)(c1cc(C)cc(C)c1)c1c(C(N)=O)[nH]c2ccc(Cl)cc12 (stereo not given)	15	4	1	238	0.9 (≈ 0.339 µg/mL)	–	–	–	–
COP(=O)(c1cccc(/C=C/C#N)c1)c1c(C(N)=O)[nH]c2ccc(Cl)cc12 (stereo not given)	–	–	–	–	–	1.8	49.5	3.4	3.2
COP(=O)(c1cc(C(F)(F)F)cc(C(F)(F)F)c1)c1c(C(N)=O)[nH]c2ccc(Cl)cc12 (stereo not given)	527	947	24.6	> 1000	–	–	–	–	–
COP(=O)(c1ccc(C)c(C)c1)c1c(C(N)=O)[nH]c2ccc(Cl)cc12 (stereo not given)	22.9	35	0.2	792	–	–	–	–	–
COP(=O)(c1cccc(C(C)C)c1)c1c(C(N)=O)[nH]c2ccc(Cl)cc12 (stereo not given)	8.4	1.6	0.5	92.6	0.8 (≈ 0.313 µg/mL)	–	–	–	–
COP(=O)(c1cc(C)cc(C#N)c1)c1c(C(N)=O)[nH]c2ccc(Cl)cc12 (stereo not given)	3.8	18.4	1	162	–	–	–	–	–
COP(=O)(c1cc(F)cc(F)c1)c1c(C(N)=O)[nH]c2ccc(Cl)cc12 (stereo not given)	6.5	25.5	0.7	642	–	–	–	–	–
COP(=O)(c1cncc(/C=C/C#N)c1)c1c(C(N)=O)[nH]c2ccc(Cl)cc12 (stereo not given)	2.5	9.5	1	192	–	–	–	–	–
COP(=O)(c1cc(C)cc(CCC#N)c1)c1c(C(N)=O)[nH]c2ccc(Cl)cc12 (stereo not given)	0.7	3.5	0.7	28.5	–	–	–	–	–
COP(=O)(c1cccc(-n2cccn2)c1)c1c(C(N)=O)[nH]c2ccc(Cl)cc12 (stereo not given)	59	102	4.5	> 1000	–	–	–	–	–
COP(=O)(c1cc(C)cc(/C=C/C#N)c1)c1c(C(N)=O)[nH]c2ccc(Cl)cc12 (single isomer, unassigned; form 2)	377	824	190	> 1250	–	–	–	–	–
